ChEMBL document CHEMBL1147156, “Structure-based design and synthesis of N(omega)-nitro-L-arginine-containing peptidomimetics as selective inhibitors of neuronal nitric oxide synthase. Displacement of the heme structural water” (J Med Chem, 2007)

What was measured:
[1] = molecular target: T1, Nitric oxide synthase, inducible (Mus musculus, UniProt P29477); assay: Inhibition of mouse recombinant inducible NOS by hemoglobin capture assay
T1 sequence (P29477 whole entry): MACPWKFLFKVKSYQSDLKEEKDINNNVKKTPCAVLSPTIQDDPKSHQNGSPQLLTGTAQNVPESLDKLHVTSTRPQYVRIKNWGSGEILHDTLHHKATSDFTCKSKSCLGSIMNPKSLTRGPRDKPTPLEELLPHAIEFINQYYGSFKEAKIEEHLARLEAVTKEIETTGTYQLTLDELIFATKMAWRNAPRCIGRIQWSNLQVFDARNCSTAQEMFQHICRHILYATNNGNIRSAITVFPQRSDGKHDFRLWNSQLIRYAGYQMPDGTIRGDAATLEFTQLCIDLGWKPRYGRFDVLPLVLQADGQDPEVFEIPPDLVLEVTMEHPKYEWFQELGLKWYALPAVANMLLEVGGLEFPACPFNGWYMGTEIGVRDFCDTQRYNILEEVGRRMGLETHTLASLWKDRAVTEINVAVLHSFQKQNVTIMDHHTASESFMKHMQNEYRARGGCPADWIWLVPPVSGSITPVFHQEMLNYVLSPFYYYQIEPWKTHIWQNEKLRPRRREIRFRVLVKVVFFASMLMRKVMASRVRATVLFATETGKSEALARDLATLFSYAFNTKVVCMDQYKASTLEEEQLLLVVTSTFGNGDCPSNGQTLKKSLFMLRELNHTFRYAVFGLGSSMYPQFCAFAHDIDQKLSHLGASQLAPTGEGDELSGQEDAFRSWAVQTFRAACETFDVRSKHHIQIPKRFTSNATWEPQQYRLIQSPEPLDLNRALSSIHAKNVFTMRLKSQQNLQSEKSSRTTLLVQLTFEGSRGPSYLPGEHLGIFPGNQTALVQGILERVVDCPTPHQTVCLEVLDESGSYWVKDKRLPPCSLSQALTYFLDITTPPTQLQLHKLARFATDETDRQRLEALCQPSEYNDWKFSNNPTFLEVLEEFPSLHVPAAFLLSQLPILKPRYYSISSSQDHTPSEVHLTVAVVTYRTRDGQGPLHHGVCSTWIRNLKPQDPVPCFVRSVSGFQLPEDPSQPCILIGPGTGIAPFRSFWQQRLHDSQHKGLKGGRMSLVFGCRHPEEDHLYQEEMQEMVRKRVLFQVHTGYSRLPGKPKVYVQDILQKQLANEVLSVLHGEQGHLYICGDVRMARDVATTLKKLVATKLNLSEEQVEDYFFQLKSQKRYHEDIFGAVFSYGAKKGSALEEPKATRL

Nitric oxide synthase 3 = molecular target: T2, Nitric oxide synthase 3 (Bos taurus, UniProt P29473); assay: Inhibition of bovine recombinant endothelial NOS by hemoglobin capture assay
T2 sequence (P29473 whole entry): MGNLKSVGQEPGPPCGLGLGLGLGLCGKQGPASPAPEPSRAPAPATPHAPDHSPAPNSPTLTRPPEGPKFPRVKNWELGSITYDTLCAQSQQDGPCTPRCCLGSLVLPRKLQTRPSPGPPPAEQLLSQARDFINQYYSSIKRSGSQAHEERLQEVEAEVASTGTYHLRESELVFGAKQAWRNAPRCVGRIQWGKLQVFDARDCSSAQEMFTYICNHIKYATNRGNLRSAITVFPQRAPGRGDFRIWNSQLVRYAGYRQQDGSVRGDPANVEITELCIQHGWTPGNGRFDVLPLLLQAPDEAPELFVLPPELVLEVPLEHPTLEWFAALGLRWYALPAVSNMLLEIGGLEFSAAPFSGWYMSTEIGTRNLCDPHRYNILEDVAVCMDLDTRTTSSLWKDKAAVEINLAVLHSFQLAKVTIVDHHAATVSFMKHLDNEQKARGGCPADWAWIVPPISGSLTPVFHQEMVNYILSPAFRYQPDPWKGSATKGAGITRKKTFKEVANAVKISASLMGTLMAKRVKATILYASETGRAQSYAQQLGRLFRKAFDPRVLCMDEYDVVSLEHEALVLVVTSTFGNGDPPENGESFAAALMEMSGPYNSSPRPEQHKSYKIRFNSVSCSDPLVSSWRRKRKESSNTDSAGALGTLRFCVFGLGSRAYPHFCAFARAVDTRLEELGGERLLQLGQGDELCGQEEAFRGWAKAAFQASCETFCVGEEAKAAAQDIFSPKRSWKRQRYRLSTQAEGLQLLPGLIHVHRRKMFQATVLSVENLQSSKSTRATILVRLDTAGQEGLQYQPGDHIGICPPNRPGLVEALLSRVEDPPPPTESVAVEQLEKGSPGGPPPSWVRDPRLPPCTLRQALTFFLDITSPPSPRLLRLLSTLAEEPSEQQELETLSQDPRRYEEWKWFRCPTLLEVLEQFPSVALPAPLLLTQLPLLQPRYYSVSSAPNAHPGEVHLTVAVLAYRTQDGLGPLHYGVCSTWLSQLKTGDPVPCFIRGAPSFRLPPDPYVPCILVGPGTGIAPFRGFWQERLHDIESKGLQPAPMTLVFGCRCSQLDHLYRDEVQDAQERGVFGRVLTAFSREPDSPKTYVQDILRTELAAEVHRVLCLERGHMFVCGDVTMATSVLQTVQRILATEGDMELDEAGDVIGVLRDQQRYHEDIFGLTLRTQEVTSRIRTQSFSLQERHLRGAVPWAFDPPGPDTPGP

[2] = Inhibition of bovine recombinant neuronal NOS by hemoglobin capture assay; design: species or system Bos taurus

| SMILES | Ki [1] [µM] | Ki (Nitric oxide synthase 3) [µM] | Ki [2] [nM] |
| --- | --- | --- | --- |
| N=C(NCCC[C@H](N)CN(N)CCN)N[N+](=O)[O-] | 37 | 103 | 560 |
| N=C(NCCC[C@H](N)C(=O)O)N[N+](=O)[O-] [NITROARGININE] | 4.28 | – | – |
| N=C(NCCC[C@H](N)CN(O)CCN)N[N+](=O)[O-] | 16 | 73 | 120 |
| N=C(NCCC[C@H](N)C(=O)N(O)[C@H]1CN[C@H](C(N)=O)C1)N[N+](=O)[O-] | 16 | 35 | 310 |
| NC(=O)[C@@H]1C[C@@H](NC(=O)[C@@H](N)CCC/N=C(\N)N[N+](=O)[O-])CN1 | – | – | 330 |
